Measured values published in US7070803B2 (Nycomed Austria GmbH, priority 2000, dated 2006).

Tests used:
[1] = Absorption of midodrine from the colon (plasma levels); details: human, in vivo, tmax of desglymidodrine after colon absorption, midodrine absorbed in the colon
[2] = Plasma pharmacokinetics after oral intake of midodrine (plain tablet / solution); details: human, in vivo
From the text: Considering the chronic nature of the diseases in question, which requires a long-term treatment as well as the correlation between plasma levels and the incidence and severity of adverse events, the development of a controlled release form is highly desired.

[3] = doses used in clinical practise (10 mg t.i.d.); cited from earlier work

COc1ccc(OC)c(C(O)CN)c1 (stereo not drawn) [desglymidodrine, alpha-(aminomethyl)-2,5-dimethoxy-benzenemethanol]
Tmax [1]: ~3 h | Tmax [2]: 1 h

COc1ccc(OC)c(C(O)CNC(=O)CN)c1 (stereo not drawn) [midodrine, 2-amino-N-[2-(2,5-dimethoxyphenyl)-2-hydroxyethyl]-acetamide]
effect on standing blood pressure [3]: significantly increase standing blood pressure
